Conditions: for mass density: 100 kPa, Buoyancy - hydrostatic balance with magnetic suspension - one sinker

CCCCCn1cc[n+](C)c1.F[B-](F)(F)F [1-methyl-3-pentyl-imidazolium tetrafluoroborate]
Liquid
Conditions | mass density [kg/m3]
263.11 K | 1196.7
268.47 K | 1193.07
273.58 K | 1189.42
278.77 K | 1185.81
283.09 K | 1182.43
288.3 K | 1178.63
292.92 K | 1175.26
298.19 K | 1171.74
303.03 K | 1168.37
308.1 K | 1164.61
313 K | 1161.19
318.13 K | 1157.51
323.84 K | 1154.03
328.48 K | 1150.65
333.48 K | 1147.02
338.25 K | 1143.81
342.51 K | 1140.95
348.51 K | 1137.46
354.03 K | 1133.59
358.73 K | 1130.69
365.22 K | 1126.55

surface tension liquid-gas [mN/m], Liquid
Conditions | Ring tensiometer | Willhelmy plate method
263.64 K | 43.08 | –
269.34 K | 42.79 | –
273.78 K | 42.67 | –
278.75 K | 42.24 | –
283.06 K | – | 41.81
283.1 K | 42.19 | –
288.31 K | 41.94 | 41.58
292.93 K | – | 41.36
292.94 K | 41.69 | –
298.2 K | 41.4 | 41.1
303.06 K | – | 40.86
303.07 K | 41.17 | –
308.07 K | 40.88 | –
308.1 K | – | 40.6
313.01 K | 40.64 | –
313.04 K | – | 40.36
318.12 K | 40.35 | –
318.17 K | – | 40.07
323.56 K | 40.02 | –
323.62 K | – | 39.72
328.29 K | 39.81 | –
328.31 K | – | 39.45
333.1 K | – | 39.18
333.29 K | 39.49 | –
338.23 K | 39.13 | 38.94
342.51 K | 38.95 | –
342.52 K | – | 38.68
348.1 K | 38.54 | –
348.11 K | – | 38.42
353.72 K | 38.21 | –
353.84 K | – | 38.09
358.24 K | 38.16 | –
358.37 K | – | 37.87
364.6 K | 37.6 | –
364.61 K | – | 37.57

CCCn1cc[n+](C)c1.F[B-](F)(F)F [1-propyl-3-methylimidazolium tetrafluoroborate]
Metastable liquid
Conditions | mass density [kg/m3]
263.48 K | 1263.82
267.76 K | 1260.36
273.92 K | 1255.4
278.64 K | 1251.98
283.36 K | 1248.34
288.62 K | 1245.07
293.07 K | 1241.48
298.18 K | 1237.91
303.09 K | 1234.13
308.11 K | 1230.24
313.13 K | 1226.49
318 K | 1222.86
322.91 K | 1219.26
328.37 K | 1215.54
333.47 K | 1211.69
337.99 K | 1208.71
342.79 K | 1205.15
348.01 K | 1201.38
353 K | 1198.22
359.33 K | 1194.13
363.9 K | 1190.61

surface tension liquid-gas [mN/m], Metastable liquid
Conditions | Ring tensiometer | Willhelmy plate method
273.75 K | – | 50.71
273.79 K | 51.33 | –
278.5 K | – | 50.51
278.59 K | 51.07 | –
283.29 K | – | 50.25
283.35 K | 50.8 | –
288.51 K | – | 49.99
288.6 K | 50.51 | –
293.05 K | – | 49.65
293.08 K | 50.23 | –
298.18 K | 49.96 | –
298.19 K | – | 49.5
303.09 K | 49.6 | 49.11
308.05 K | – | 48.73
308.08 K | 49.16 | –
313.06 K | – | 48.58
313.09 K | 49.02 | –
318 K | 48.72 | 48.32
322.85 K | – | 47.95
322.87 K | 48.32 | –
328.24 K | – | 47.64
328.31 K | 47.95 | –
333.32 K | – | 47.28
333.5 K | 47.54 | –
338.08 K | – | 47.1
338.14 K | 47.43 | –
342.74 K | – | 46.86
342.81 K | 46.8 | –
348.07 K | 46.79 | –
348.15 K | – | 46.48
353.02 K | 46.07 | –
353.21 K | – | 46.16
358.98 K | 45.94 | –
359.05 K | – | 45.89
362.96 K | – | 45.51
363.8 K | 45.67 | –

CCCCCCCn1cc[n+](C)c1.F[B-](F)(F)F [1-heptyl-3-methylimidazolium tetrafluoroborate]
surface tension liquid-gas [mN/m], Liquid
Conditions | Ring tensiometer | Willlhelmy plate method
263.76 K | 37.38 | –
268.69 K | 37.21 | –
273.9 K | 36.87 | –
278.51 K | 36.66 | –
283.18 K | – | 36.23
283.21 K | 36.42 | –
288.47 K | – | 35.98
288.49 K | 36.15 | –
293.29 K | 36.03 | 35.74
298.21 K | 35.76 | 35.54
303.1 K | 35.54 | –
303.11 K | – | 35.31
308.19 K | – | 35.1
308.2 K | 35.18 | –
313.21 K | 34.9 | –
313.24 K | – | 34.82
317.78 K | 34.74 | –
317.81 K | – | 34.6
323 K | 34.45 | –
323.06 K | – | 34.33
327.79 K | 34.24 | –
327.8 K | – | 34.13
333.01 K | 33.87 | –
333.09 K | – | 33.82
338.61 K | – | 33.62
338.64 K | 33.54 | –
342.42 K | 33.44 | –
342.5 K | – | 33.39
348.76 K | – | 33.17
348.79 K | 33.17 | –
353.93 K | 32.8 | –
353.99 K | – | 32.86
357.12 K | – | 32.66
357.16 K | 32.47 | –
364.34 K | 31.97 | –
364.4 K | – | 32.34

Liquid
Conditions | mass density [kg/m3]
263.87 K | 1147.27
268.63 K | 1143.58
273.63 K | 1139.44
278.6 K | 1136.36
283.19 K | 1133.24
288.51 K | 1129.35
293.3 K | 1126.02
298.21 K | 1122.73
303.11 K | 1119.42
308.22 K | 1115.86
313.23 K | 1112.13
317.78 K | 1108.94
322.97 K | 1105.52
327.81 K | 1102.47
333.04 K | 1098.48
338.46 K | 1095.77
342.6 K | 1092.48
348.77 K | 1089.11
353.97 K | 1085.93
357.24 K | 1082.94
364.28 K | 1078.73
